Laboratory results reported in ChEMBL document CHEMBL1201862, “PubChem BioAssay data set” (2004).
Values belong to the compound of their own block, whether it stands above or below them. Active and inactive are the calls of the source.

Assays:
[1] = target: Voltage-gated N-type calcium channel alpha-1B subunit/Amyloid beta A4 precursor protein-binding family A member 1 (Homo sapiens, UniProt Q00975+Q02410); format: protein assay
[2] = target: Sphingosine 1-phosphate receptor 4 (Homo sapiens, UniProt O95977); test: Fluorescence dose response cell-based high throughput screening assay for antagonists of the Sphingosine 1-Phosphate Receptor 4 (S1P4). [Related pubchem assays: 1524 (Confirmation in triplicates.), 1510 (Primary screen.)]; format: functional
[3] = system: CHO; test: cytotoxicity in TLR9-MyD88 CHO cells, dose response, cytotoxicity control for TLR9-MyD88 binding inhibitor project, cell-based, luminescence (AID 588339); format: functional, hamster; settings: Cricetulus griseus;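 note: CHO cells stably coexpressing TLR9 and MyD88 fusions from primary screen; compound exposure lasted 48 hours before viability readout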
[4] = target: T1, Hexokinase HKDC1 (Homo sapiens, UniProt Q2TB90); test: HKDC1 hexokinase inhibitors, dose response, biochemical, W721R variant (AID 504729); format: functional
T1 sequence (Q2TB90 whole entry): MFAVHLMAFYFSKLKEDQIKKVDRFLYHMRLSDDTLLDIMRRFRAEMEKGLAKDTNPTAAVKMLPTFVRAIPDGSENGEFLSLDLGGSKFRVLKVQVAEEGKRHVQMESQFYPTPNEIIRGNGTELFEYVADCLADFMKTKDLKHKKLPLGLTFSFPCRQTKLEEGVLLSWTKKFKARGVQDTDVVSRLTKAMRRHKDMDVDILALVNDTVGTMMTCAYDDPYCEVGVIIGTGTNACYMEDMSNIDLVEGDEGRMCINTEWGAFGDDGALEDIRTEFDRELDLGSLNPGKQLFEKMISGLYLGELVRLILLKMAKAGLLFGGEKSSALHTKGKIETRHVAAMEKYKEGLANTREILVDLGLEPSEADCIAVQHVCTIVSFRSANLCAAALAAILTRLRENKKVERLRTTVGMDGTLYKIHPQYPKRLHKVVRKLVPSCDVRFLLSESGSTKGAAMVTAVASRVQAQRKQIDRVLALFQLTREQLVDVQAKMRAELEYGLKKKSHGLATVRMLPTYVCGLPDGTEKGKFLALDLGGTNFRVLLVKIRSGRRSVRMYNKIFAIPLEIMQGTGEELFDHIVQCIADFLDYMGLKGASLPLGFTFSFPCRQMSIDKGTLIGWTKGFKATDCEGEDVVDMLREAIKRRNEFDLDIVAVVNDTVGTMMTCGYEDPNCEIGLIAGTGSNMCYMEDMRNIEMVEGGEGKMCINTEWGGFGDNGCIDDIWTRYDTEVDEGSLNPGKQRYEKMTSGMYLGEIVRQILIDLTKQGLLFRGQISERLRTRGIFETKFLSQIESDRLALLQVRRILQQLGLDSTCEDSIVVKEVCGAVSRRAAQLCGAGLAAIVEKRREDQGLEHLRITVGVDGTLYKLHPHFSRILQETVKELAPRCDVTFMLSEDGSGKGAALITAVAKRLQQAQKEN

[5] = non-specific cell cytotoxicity, dose response, cytotoxicity control for PAX8 inhibitor project, plate reader, dry powder samples (AID 743021); format: functional, cell-based
[6] = target: T2, Tyrosyl-DNA phosphodiesterase 2 (Homo sapiens, UniProt O95551); test: human TDP2 enzyme inhibitors, dose response, biochemical, epi absorbance, IC50 (AID 743297)
T2 sequence (O95551 whole entry): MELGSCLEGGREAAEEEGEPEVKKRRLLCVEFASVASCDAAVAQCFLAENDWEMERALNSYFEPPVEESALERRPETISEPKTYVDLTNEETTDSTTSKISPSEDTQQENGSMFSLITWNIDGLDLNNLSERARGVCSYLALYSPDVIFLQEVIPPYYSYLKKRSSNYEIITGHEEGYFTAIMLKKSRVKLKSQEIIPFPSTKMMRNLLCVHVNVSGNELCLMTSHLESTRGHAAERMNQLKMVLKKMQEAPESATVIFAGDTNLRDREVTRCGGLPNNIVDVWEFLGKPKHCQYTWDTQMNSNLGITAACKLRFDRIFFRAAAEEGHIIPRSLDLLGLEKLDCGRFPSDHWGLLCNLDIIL

[7] = target: Glucose-6-phosphate 1-dehydrogenase (Homo sapiens, UniProt P11413); test: human G6PD enzyme inhibitors, dose response, selectivity assay for P. falciparum G6PD inhibitor project, biochemical, fluorescence (AID 504792); format: functional
Chain of Glucose-6-phosphate 1-dehydrogenase (P11413 whole entry): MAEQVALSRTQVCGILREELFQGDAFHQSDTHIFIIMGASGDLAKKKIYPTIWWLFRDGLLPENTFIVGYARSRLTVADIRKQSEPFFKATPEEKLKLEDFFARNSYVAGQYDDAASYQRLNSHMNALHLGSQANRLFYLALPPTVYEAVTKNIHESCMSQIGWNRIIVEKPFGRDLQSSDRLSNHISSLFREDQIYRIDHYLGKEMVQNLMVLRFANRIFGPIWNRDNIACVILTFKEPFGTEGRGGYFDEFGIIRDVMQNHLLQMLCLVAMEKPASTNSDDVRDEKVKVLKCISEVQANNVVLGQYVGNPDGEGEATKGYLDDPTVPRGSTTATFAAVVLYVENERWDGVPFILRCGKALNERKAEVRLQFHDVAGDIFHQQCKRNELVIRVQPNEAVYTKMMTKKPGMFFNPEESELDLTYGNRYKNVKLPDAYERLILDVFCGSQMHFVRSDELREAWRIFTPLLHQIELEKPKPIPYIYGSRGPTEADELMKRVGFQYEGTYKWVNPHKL

[8] = target: Large T antigen (Simian virus 40, UniProt P03070); format: functional, Betapolyomavirus macacae;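 note: Confirmatory-stage PubChem screen for compounds that inhibit SV40 T antigen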
[9] = target: Tyrosine-protein kinase FRK (Homo sapiens, UniProt P42685); format: functional;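 note: FRK tested as one member of a kinome panel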
[10] = target: Tyrosine-protein kinase Fer (Homo sapiens, UniProt P16591); format: functional;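 note: FER tested as one member of a kinome panel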
Chain of Tyrosine-protein kinase Fer (P16591 whole entry): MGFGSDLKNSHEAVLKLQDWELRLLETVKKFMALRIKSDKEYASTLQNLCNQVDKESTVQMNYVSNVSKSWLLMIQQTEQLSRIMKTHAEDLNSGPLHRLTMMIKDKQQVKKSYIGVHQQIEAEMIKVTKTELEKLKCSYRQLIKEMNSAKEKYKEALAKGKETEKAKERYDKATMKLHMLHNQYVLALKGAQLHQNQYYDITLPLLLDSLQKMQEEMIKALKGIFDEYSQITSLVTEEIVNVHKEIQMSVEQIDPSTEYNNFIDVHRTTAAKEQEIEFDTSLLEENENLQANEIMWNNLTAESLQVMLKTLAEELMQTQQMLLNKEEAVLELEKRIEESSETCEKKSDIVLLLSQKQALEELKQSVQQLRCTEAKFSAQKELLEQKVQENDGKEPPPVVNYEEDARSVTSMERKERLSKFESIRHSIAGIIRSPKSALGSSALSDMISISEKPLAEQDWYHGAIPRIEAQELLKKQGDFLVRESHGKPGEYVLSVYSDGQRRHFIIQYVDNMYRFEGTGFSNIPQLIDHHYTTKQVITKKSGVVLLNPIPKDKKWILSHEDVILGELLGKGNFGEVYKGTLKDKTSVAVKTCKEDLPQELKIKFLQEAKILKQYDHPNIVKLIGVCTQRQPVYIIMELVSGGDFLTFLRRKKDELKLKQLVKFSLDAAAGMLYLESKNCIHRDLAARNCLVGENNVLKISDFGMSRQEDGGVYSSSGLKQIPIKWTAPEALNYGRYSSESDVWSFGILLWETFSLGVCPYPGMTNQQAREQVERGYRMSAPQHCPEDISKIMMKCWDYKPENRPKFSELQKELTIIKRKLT

[11] = target: Protein kinase C gamma type (Homo sapiens, UniProt P05129); format: functional
[12] = target: MAP kinase-interacting serine/threonine-protein kinase 2 (Homo sapiens, UniProt Q9HBH9); format: functional
Chain of MAP kinase-interacting serine/threonine-protein kinase 2 (Q9HBH9 whole entry): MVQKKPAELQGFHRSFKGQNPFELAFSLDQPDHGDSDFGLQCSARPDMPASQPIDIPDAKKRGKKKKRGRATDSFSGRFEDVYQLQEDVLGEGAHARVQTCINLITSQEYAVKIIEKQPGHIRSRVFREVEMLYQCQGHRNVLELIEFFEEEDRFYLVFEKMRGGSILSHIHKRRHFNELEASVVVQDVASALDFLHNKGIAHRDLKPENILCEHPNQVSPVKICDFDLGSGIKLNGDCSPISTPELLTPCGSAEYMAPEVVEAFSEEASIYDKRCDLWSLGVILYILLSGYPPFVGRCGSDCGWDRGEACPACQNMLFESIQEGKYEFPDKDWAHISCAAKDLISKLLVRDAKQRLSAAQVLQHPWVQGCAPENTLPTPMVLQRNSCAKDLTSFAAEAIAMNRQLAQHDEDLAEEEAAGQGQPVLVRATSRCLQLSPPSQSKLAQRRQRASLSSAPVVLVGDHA

[13] = target: Tyrosine-protein kinase receptor TYRO3 (Homo sapiens, UniProt Q06418); format: functional;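 note: TYRO3 value obtained as one member of a kinome-wide profiling panel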
[14] = target: 3-phosphoinositide-dependent protein kinase 1 (Homo sapiens, UniProt O15530); format: functional;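 note: value comes from the Navigating the Kinome panel, PDPK1 member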
[15] = target: Macrophage colony-stimulating factor 1 receptor (Homo sapiens, UniProt P07333); format: functional;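 note: value comes from the Navigating the Kinome screening panel, CSF1R member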
Chain of Macrophage colony-stimulating factor 1 receptor (P07333 whole entry): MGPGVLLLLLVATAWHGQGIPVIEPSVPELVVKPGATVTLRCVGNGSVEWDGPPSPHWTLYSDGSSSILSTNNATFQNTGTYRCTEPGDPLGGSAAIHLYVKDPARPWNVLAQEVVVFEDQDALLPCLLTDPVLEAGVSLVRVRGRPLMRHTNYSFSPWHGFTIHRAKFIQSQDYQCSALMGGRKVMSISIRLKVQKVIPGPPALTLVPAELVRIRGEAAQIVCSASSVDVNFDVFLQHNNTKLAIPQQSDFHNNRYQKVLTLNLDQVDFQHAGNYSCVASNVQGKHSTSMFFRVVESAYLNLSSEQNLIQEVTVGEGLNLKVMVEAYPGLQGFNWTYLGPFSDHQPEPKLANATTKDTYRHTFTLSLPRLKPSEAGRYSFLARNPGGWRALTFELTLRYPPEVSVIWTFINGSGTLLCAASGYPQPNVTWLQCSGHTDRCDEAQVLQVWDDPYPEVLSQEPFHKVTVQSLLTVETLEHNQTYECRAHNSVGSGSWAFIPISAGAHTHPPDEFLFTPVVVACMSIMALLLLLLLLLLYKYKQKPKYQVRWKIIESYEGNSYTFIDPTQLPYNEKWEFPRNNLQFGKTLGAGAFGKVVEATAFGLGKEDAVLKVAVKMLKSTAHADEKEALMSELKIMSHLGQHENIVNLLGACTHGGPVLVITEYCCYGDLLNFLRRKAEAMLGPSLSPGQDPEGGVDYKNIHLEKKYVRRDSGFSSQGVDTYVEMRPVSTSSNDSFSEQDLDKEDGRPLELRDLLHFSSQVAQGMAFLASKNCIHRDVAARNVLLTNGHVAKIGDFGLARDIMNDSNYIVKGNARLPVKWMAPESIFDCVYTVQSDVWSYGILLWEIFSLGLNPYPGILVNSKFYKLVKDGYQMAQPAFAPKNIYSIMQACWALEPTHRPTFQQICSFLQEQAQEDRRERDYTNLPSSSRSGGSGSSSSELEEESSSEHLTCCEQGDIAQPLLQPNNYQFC

[16] = target: Fibroblast growth factor receptor 1 (Homo sapiens, UniProt P11362); format: functional
[17] = target: Death-associated protein kinase 3 (Homo sapiens, UniProt O43293); format: functional;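 note: measured as one member of a kinome-wide profiling panel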
Chain of Death-associated protein kinase 3 (O43293 whole entry, canonical isoform): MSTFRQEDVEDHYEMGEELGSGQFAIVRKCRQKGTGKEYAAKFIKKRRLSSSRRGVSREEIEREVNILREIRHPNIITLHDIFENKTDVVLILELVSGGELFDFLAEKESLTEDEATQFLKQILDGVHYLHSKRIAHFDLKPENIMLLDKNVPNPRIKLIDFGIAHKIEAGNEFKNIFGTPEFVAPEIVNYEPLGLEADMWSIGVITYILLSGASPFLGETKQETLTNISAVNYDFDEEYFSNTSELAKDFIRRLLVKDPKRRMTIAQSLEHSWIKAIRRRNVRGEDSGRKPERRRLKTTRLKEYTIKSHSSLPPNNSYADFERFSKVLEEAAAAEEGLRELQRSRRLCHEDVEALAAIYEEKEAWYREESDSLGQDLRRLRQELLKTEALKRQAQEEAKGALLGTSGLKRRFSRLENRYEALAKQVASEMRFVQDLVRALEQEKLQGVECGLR

[18] = target: Casein kinase I isoform gamma-1 (Homo sapiens, UniProt Q9HCP0); format: functional;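 note: measured as the CSNK1G1 member of a kinome profiling panel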
[19] = target: Mitogen-activated protein kinase 1 (Homo sapiens, UniProt P28482); format: functional
[20] = target: MAP kinase-activated protein kinase 3 (Homo sapiens, UniProt Q16644); format: functional;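 note: value comes from a kinome-wide profiling panel in which MAPKAPK3 is one of the panel members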
Chain of MAP kinase-activated protein kinase 3 (Q16644 whole entry): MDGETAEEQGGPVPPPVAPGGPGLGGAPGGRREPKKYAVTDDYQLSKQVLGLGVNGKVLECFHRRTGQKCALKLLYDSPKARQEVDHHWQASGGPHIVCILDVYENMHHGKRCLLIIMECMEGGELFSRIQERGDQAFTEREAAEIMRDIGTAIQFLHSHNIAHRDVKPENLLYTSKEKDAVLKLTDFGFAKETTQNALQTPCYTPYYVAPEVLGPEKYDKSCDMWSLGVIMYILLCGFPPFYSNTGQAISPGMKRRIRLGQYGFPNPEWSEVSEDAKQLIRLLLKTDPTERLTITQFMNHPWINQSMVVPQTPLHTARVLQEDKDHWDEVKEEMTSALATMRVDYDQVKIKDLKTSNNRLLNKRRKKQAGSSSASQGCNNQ

[21] = target: RAC-alpha serine/threonine-protein kinase (Homo sapiens, UniProt P31749); format: functional;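 note: AKT1 affinity measured as one member of a kinome-wide kinase profiling panel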
Chain of RAC-alpha serine/threonine-protein kinase (P31749 whole entry): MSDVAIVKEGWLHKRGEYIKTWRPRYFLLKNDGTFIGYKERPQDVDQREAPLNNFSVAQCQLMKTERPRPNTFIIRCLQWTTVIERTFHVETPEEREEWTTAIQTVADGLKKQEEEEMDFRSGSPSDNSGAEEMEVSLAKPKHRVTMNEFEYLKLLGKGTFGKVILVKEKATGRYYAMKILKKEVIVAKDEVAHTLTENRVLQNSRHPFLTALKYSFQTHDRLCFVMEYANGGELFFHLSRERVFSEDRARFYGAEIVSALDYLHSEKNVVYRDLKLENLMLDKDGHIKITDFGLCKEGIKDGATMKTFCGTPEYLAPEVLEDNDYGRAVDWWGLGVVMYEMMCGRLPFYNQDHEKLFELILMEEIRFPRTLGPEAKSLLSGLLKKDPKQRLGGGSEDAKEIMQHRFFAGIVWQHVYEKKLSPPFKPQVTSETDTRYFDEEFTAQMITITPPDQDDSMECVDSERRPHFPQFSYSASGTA

[22] = target: Mitogen-activated protein kinase 9 (Homo sapiens, UniProt P45984); format: functional;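 note: value from a kinome panel profiling assay, MAPK9 panel entry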
[23] = target: T3, Caspase-3 (Homo sapiens, UniProt P42574); test: Dose-response confirmation of uHTS inhibitor hits of Sentrin-Specific Protease 8 in a Caspase-3 Fluorescence assay.; format: functional
T3 sequence (P42574 whole entry): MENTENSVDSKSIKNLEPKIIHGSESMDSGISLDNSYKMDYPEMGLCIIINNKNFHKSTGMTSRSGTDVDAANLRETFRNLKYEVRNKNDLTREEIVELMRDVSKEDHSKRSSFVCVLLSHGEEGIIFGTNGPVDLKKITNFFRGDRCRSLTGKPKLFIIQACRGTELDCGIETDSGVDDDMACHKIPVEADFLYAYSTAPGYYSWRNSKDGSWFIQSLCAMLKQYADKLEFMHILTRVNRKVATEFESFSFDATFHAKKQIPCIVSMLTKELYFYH

SMILES: CC(=O)N(C1=C(Cl)C(=O)c2ccccc2C1=O)C1CCCCC1
- IC50 [1]: 745 nM (active)
- IC50 [2]: 2030 nM (active)
- IC50 [3]: 802 nM (active)
- IC50 [4]: 7150 nM (active)
- AC50 [5]: 21500 nM (active)
- IC50 [6]: 19500 nM (inactive)

SMILES: Oc1ccc(-c2cn3c(n2)SCC3)cc1O
- IC50 [7]: 41000 nM (inactive)
- IC50 [8]: 9740 nM (active)

- Ki [9]: 31.6 nM (active)
- Ki [10]: 1260 nM (active)
- Ki [11]: 1260 nM (active)
- Ki [12]: 126 nM (active)
- Ki [13]: 126 nM (active)
- Ki [14]: 15.8 nM (active)
- Ki [15]: 251 nM (active)
- Ki [16]: 25.1 nM (active)
- Ki [18]: 2510 nM (active)
- Ki [19]: 158 nM (active)
- Ki [20]: 7940 nM (active)
- Ki [21]: > 7940 nM (inactive)
- Ki [22]: 126 nM (active)
SMILES: O=C1Nc2ccc3ncsc3c2C1=CNc1ccc(S(=O)(=O)Nc2ccccn2)cc1
- Ki [17]: 79.4 nM (active)

SMILES: COc1ccc(/C=N/NC(=O)c2nn(-c3ccccc3)c(=O)c3c(N)scc23)cc1
- IC50 [23]: 2150 nM (active)
